Measured values reported in article PMC7561186, “Rational design of balanced dual-targeting antibiotics with limited resistance” (PLoS Biology, 2020).
“And” between values parts separate entries of the source, which are not always exact repeats. Identical values can stand only once.

Legend:
[1] = system: human hERG potassium ion channel; conditions: for inhibitory effect on human hERG ion channels: 150 μM, in words; for Significant (hERG inhibition) / Normalized inhibition (%): 150 µM, hERG; for Normalized inhibition (%): n = 8
Experimental: Inhibition of the human hERG cardiac K+ ion channel was determined by Eurofins Panlabs (St. Charles, MO, USA) by using QPatch automated whole-cell patch-clamp electrophysiology, as described previously. […] During measurements, after whole-cell patch configuration was achieved, the cells were held at −80 mV. Next, a 500-millisecond pulse to −40 mV was delivered to measure the leaking current, which was then subtracted from the tail current’s readout. Then the cell was depolarized to +40 mV for 500 milliseconds and then to −80 mV over a 100-millisecond ramp to elicit the hERG tail current. This workflow was repeated once in every 8 seconds to monitor the current amplitude. The parameters measured during each test were the maximum tail current evoked on stepping to 40 mV and ramping back to −80 mV from the test pulse. All data were filtered for seal quality, seal drop, and current amplitude. The peak current amplitude was calculated before and after compound addition, and the amount of inhibition was assessed by dividing the test compound’s current amplitude by the control’s current amplitude. During our tests, the control was the mean hERG current amplitude collected 15 seconds at the end of each measurement, and the test compound was the mean hERG current amplitude collected in the presence of test compound at the given concentration.

[2] = system: S. aureus USA300 (MRSA) BAA1556, S. aureus (VRSA) ECL2963646, S. aureus Mu50 (VISA) ATCC 700699; test: S. aureus dermal infection model; type: in vivo, ICR mice; conditions: for Log CFU/Skin: 2% treatment, individual animals; for antibacterial activity after topical application: mouse skin infection, ointment twice daily, MRSA, VISA, VRSA, comparable to mupirocin, in words
Experimental: The testing strains, S. aureus USA300 (MRSA) BAA1556, S. aureus (VRSA) ECL2963646, and S. aureus Mu50 (VISA) ATCC 700699 were obtained from frozen stocks and thawed at room temperature. Next, an aliquot of 0.2 mL from each stock was transferred to 20 mL BHI broth and incubated at 37 °C with shaking (120 rpm) for 8 hours. Cells in 20 mL culture were pelleted by centrifugation, 3,500g for 15 minutes, and then resuspended in 10 mL cold PBS, then cells were diluted in PBS to obtain the inoculum sizes of 1×10^5 or 1× 10^6 CFU/mL, based on the testing strain’s virulence. In all cases, the actual colony counts were determined by plating dilutions in at least 3 replicates onto MHBII agar plates followed by 24 hours’ incubation and colony counting.
For dermal infections, groups of 5 female ICR mice weighing 24 ± 4 g, provided by BioLasco Taiwan (under a Charles River Laboratories Technology Licensee), were used. Animals were acclimated for 3 days prior to use and were confirmed to be in good health. Prior to infection, animals were anesthetized with etomidate-lipuro emulsion (20 mg /10 mL) at 20 mg/kg by IV injection, and then the fur on the back was removed by an electric shaver, and the epidermal layer was disrupted with an abrasive paper according to the protocol developed by Kugelberg and colleagues. Mice were inoculated topically on the wound area with testing strain suspension, 5 μL/mouse. The target inoculation densities were 1×10^5 or 1× 10^6 CFU/mL, based on the corresponding strain’s virulence. Following infection, animals were housed separately. […] Test articles were administered topically (20 μL/mouse) twice daily. One no-treatment group was euthanized at 1 hour after infection for initial bacterial counts, and the other treatment groups were dosed twice daily with the test compounds and sacrificed either at 25 hours or at 73 hours postinfection. Animals were euthanized with CO2 asphyxiation and the infected skin, a 2 cm^2 area, was excised. The skin samples of the wound infection (around 2 cm^2 areas) were then homogenized in 1 mL PBS (pH 7.4) with a polytron homogenizer. A 0.1 mL aliquot of each homogenate was used for serial 10-fold dilutions and plated onto MHBII agar plates for bacterial enumeration. Statistical significance (P <0.05) was assessed with 1-way ANOVA followed by Dunnett’s method. A significant (P <0.05) decrease in the bacterial counts of the treated animals compared with the vehicle control group was considered significant antimicrobial activity.

[3] = system: S. aureus ATCC 700699 (VISA); test: microbe, parasite or virus in culture; type: cell-based; conditions: for MIC: Staphylococcus aureus, read-out: MIC in adapted strains; for increase in MIC in adapted strains compared with the wild-type strain: lineages adapted to the same compound, S. aureus VISA
Experimental: Adaptive laboratory evolution experiments followed an established protocol for automated laboratory evolution and aimed to maximize the drug-resistance increment during a fixed time period. […] Experiments were conducted in 96-well plates, in MHBII medium, by utilizing a checkerboard layout to minimize and monitor cross-contamination. These 96-well deep-well plates (0.5 mL, polypropylene, V-bottom) were covered with sandwich covers (Enzyscreen BV) to ensure an optimal oxygen exchange rate and limit evaporation and were shaken at 150 rpm, 37 °C. […] Following cell transfer, each culture was allowed to grow for 48 hours. At each transfer, cell growth was monitored by measuring the OD600 in a BioTek Synergy 2 plate reader. […] Accordingly, only 1 of the 4 populations was retained for each independently evolving strain. This protocol was designed to avoid population extinction and to ensure that populations with the highest level of resistance are propagated further during adaptive evolution. […] Adaptation of populations was terminated after 20 transfers, i.e., 40 days. Following adaptation, cells from each final population were spread onto MHBII agar plates, and individual colonies were isolated. Next, one colony from each adapted line were subjected to capillary sequencing of gyrB and parE to assess their genotype.

[4] = system: Haemophilus influenzae; test: MIC, broth microdilution (CLSI); type: cell-based
Experimental: (§1) MICs were determined using a standard serial broth microdilution technique according to the CLSI guidelines. Briefly, bacterial strains were inoculated onto MHBII agar plates and were grown overnight at 37 °C. Next, 3 individual colonies from each strain were inoculated into 1 mL MHBII medium and propagated at 37 °C, 250 rpm overnight. In the cases of Enterococcus and Streptococcus sp., cells were plated to BHI agar plates, and BHI broth was used to determine MICs. […] Following dilutions, each well was seeded with 5×10^4 bacterial cells. All measurements were performed in 3 parallel replicates and to avoid possible edge effects in microwell plates, side rows (A and H) were filled with sterile medium. Following inoculations, plates were covered with lids and wrapped in polyethylene plastic bags to minimize evaporation but allow for O2 transfer. Plates were incubated at 37 °C under continuous shaking at 150 rpm for 18 hours. After incubation, OD600 of each well was measured using a BioTek Synergy 2 microplate reader.

[5] = system: Enterococcus faecalis; test: MIC, broth microdilution (CLSI); type: cell-based
Experimental: as §1

[6] = system: Escherichia coli; test: MIC, broth microdilution (CLSI); type: cell-based; conditions: Escherichia coli ATCC 25922
Experimental: as §1

[7] = system: Klebsiella pneumoniae; test: MIC, broth microdilution (CLSI); type: cell-based; conditions: Klebsiella pneumoniae ATCC 10031
Experimental: as §1

[8] = Staphylococcus aureus ECL 2963646 (VRSA)
[9] = Staphylococcus aureus Mu50 ATCC 700699 (VISA)
[10] = Staphylococcus aureus USA300 (MRSA)
[11] = ATCC49247, Haemophilus influenzae ATCC 49247
[12] = Haemophilus influenzae ATCC 35056
[13] = Haemophilus influenzae ATCC 49247
[14] = Enterococcus faecalis ATCC 29212

SMILES: Cc1[nH]c(C(=O)Nc2nc3ccc(C(=O)O)cc3s2)c(Cl)c1Cl [ULD1]
- inhibitory effect on human hERG ion channels [1]: No statistically significant inhibitory effect
- Significant (hERG inhibition) [1]: No (Only results showing an inhibition higher than 50% are considered to represent significant effects of the tested compounds)
- Normalized inhibition (%) [1]: 5.5%
- Log CFU/Skin [2, 8]: 5.77 Log CFU/Skin and 5.81 Log CFU/Skin and 5.92 Log CFU/Skin and 6.59 Log CFU/Skin and 5.61 Log CFU/Skin
- Log CFU/Skin [2, 9]: 5 Log CFU/Skin and 5.57 Log CFU/Skin and 5.65 Log CFU/Skin and 4.91 Log CFU/Skin and 5.98 Log CFU/Skin
- Log CFU/Skin [2, 10]: 4.61 Log CFU/Skin and 3.68 Log CFU/Skin and 4.97 Log CFU/Skin and 3.75 Log CFU/Skin and 4.86 Log CFU/Skin
- antibacterial activity after topical application [2]: potent antibacterial activity
- MIC [3]: 1 µg/mL
- increase in MIC in adapted strains compared with the wild-type strain [3]: 25 fold
- MIC [4, 11]: ≤ 0.0312 µg/mL
- MIC [4, 12]: 0.125 µg/mL
- MIC [4, 13]: < 0.0312 µg/mL
- MIC [5, 14]: 0.125 µg/mL
- MIC ([5]; Enterococcus faecalis ATCC 51575, VRE (VanB+)): 0.0625 µg/mL
- MIC [6]: 4 µg/mL
- MIC ([7]; ATCC10031): 1 µg/mL
- MIC [7]: 1 µg/mL

SMILES: Cc1[nH]c(C(=O)Nc2nc3c(OCc4ccccc4)cc(C(=O)O)cc3s2)c(Cl)c1Cl [ULD2]
- inhibitory effect on human hERG ion channels [1]: No statistically significant inhibitory effect
- Significant (hERG inhibition) [1]: No (Only results showing an inhibition higher than 50% are considered to represent significant effects of the tested compounds)
- Normalized inhibition (%) [1]: 27%
- Log CFU/Skin [2, 8]: 5.96 Log CFU/Skin and 5.93 Log CFU/Skin and 5.51 Log CFU/Skin and 5.91 Log CFU/Skin and 5.45 Log CFU/Skin
- Log CFU/Skin [2, 9]: 4.76 Log CFU/Skin and 5.44 Log CFU/Skin and 5.93 Log CFU/Skin and 4.96 Log CFU/Skin and 5.73 Log CFU/Skin
- Log CFU/Skin [2, 10]: 4.14 Log CFU/Skin and 4.81 Log CFU/Skin and 5.33 Log CFU/Skin and 6.64 Log CFU/Skin and 5.97 Log CFU/Skin
- antibacterial activity after topical application [2]: potent antibacterial activity
- MIC [3]: 0.5 µg/mL
- increase in MIC in adapted strains compared with the wild-type strain [3]: 25 fold
- MIC [4, 11]: 0.125 µg/mL
- MIC [4, 12]: 1 µg/mL
- MIC [4, 13]: 0.125 µg/mL
- MIC [5, 14]: < 0.0312 µg/mL
- MIC [6]: 16 µg/mL
- MIC ([7]; ATCC10031): 4 µg/mL
- MIC [7]: 4 µg/mL
